For one assay, the system named is MDS BM-MNC. Description: Clonogenic (colony forming) assay of MDS BM-MNC pretreated with lenalidomide, plated with EPO. Type of assay: cell-based, human. As to the method:
FIGS. 1A and 1B show Lenalidomide potentiates clonogenic response to […]. […] Colonies were scored after 14 days incubation and the growth of bone marrow colony-forming unit granulocyte, erythroid, macrophage, megakaryocyte (CFU-GEMM); burst-forming unit-erythroid (BFU-E); and colony-forming unit granulocyte-macrophage (CFU-GM) assessed. […] Cells were then plated in methylcellulose+10% FBS, 2000 cells/well, with or without erythropoietin (EPO). Colonies were scored at day seven.
To investigate the mechanism by which lenalidomide promotes erythropoiesis, the effect of lenalidomide on erythroid progenitor colony forming capacity was evaluated in lower risk patients [FIG. 1A]. Two-hour exposure to lenalidomide prior to initiation of BM-MNC in methylcellulose culture enhanced BFU-E formation over a concentration range of 0.001-1.0 μM. […] Erythroid progenitor cell lines were next evaluated to identify a model for investigation of the mechanism of lenalidomide's erythroid promoting effect.

For another assay, the target named is T1, rhu-CD45 (Homo sapiens, UniProt P08575).
T1 construct: purchased Calbiochem
T1 sequence (P08575 26-1306): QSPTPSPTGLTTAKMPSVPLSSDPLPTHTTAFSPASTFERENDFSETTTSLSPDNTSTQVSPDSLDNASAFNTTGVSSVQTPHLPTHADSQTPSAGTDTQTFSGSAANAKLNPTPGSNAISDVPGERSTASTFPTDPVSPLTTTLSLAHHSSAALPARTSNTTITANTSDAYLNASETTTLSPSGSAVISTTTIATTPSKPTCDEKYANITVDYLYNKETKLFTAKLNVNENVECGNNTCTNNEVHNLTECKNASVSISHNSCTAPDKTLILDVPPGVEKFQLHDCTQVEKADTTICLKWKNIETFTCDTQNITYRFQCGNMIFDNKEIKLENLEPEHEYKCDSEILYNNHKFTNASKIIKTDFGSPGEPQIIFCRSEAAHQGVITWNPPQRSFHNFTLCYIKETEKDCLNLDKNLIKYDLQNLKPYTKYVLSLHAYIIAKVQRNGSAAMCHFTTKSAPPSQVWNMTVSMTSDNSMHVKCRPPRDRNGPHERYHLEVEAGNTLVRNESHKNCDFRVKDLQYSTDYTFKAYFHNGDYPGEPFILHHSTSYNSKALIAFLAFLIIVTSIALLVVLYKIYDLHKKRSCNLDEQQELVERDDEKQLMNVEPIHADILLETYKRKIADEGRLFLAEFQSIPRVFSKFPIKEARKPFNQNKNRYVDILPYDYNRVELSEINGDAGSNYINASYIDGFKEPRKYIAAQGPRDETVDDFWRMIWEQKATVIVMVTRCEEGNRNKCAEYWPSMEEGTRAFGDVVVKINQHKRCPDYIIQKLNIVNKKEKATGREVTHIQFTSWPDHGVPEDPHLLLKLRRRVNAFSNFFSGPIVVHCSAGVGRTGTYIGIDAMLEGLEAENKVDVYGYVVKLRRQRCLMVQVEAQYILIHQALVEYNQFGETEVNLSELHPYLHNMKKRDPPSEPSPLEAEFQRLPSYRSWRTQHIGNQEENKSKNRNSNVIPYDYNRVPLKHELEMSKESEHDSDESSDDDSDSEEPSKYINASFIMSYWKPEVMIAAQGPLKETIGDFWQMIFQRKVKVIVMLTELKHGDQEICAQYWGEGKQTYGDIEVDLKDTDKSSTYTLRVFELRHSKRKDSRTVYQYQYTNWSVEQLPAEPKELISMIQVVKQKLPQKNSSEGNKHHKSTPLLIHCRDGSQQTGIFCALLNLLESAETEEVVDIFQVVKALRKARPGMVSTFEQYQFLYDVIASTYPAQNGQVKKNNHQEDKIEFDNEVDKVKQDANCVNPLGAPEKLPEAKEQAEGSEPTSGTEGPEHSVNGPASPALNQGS
Description: BIOMOL Green CD45 Tyrosine Phosphatase Assay. Type of assay: biochemical. To be noted: recombinant CD45, substrate pp60c-Src, read-out: inhibition of CD45 PTP activity. The protocol: CD45-specific PTP activity was assayed as outlined in the BIOMOL Green™ CD45 Tyrosine Phosphatase Assay Kit. Briefly, 75 U of rhu-CD45 (Calbiochem) was incubated for 1H at 37° C. with the indicated inhibitors (1 μM CC5013 and thalidomide, 100 μM Na Orthovanadate, and 50 μM RWJ-60475 (CD45-specific PTP inhibitor) in 1× assay buffer. The substrate pp60c-Src was added at 200 μM and incubated for 1H at 37° C. Samples were read on a plate reader at 620 nm. Percent PTP activity was calculated according to the equation (OD of test sample/OD of control)×100.
This notion is in agreement with findings that lenalidomide suppressed cytosolic release of Csk that is dependent upon dephosphorylation of the Cbp/PAG Csk docking site (Tyr314) by CD45. To determine if lenalidomide inhibits CD45 phosphatase, recombinant CD45 PTP inhibition by lenalidomide and thalidomide was compared to the pan-PTP inhibitor sodium orthovanadate and the CD45-selective inhibitor, RWJ-60475 using the Biomol CD45 phosphatase assay. […] [FIG. 7].

The next assay relates to STAT5. Description: STAT5 DNA binding by EMSA in UT7 nuclear extracts. Type of assay: cell-based. To be noted: combined lenalidomide and EPO treatment.
Setting [1] is: two-hour exposure prior to methylcellulose culture.

For the compound `Nc1cccc2c1CN(C1CCC(=O)NC1=O)C2=O` (centres unmarked) [lenalidomide, 3-(4-amino-1-oxo-1,3-dihydro-2H-isoindol-2-yl)piperidine-2,6-dione], in the assay with MDS BM-MNC (setting [1]), the “growth of multipotent progenitors (CFU-GEMM)” value is “unchanged” and the “growth of myeloid progenitors (CFU-GM)” value is on record as “unchanged”. Also, the “concentration range over which BFU-E formation was enhanced” value with MDS BM-MNC (two-hour exposure prior to methylcellulose culture with EPO, lower risk MDS BM-MNC) was 0.001 to 1.0 µM. Also, the inhibition at 1 µM on rhu-CD45 is around 50%. In the assay with STAT5, the “STAT5 DNA binding (nuclear translocation)” value is on record as “greater DNA binding”.

These data come from US20220040263A1, “COMPANION DIAGNOSTIC FOR COMBINATION LENALIDOMIDE AND ERYTHROPOIETIN TREATMENT” (H. Lee Moffitt Cancer Center and Research Institute, Inc., priority 2016, published 2022).
